# Source: patent publication US4053632A, “Compounds of spiro-amine type and methods for their use” (priority 1971, dated 1977)
# “Also recorded” adds a separate entry of the source. Like-named read-outs stand apart in the source and are kept apart here.
# Assays:
# l-Dopa response = test: Dopa response potentiation test; format: in vivo, mouse
# Procedure: This test is developed by G.M. Everett (Antidepressant drugs,[…] in groups of 3 are pretreated with Pargyline ®40 l mg/kg p.o. about 10-16 hours before the test. […] 1. piloerection, slight salivation, slight increased motor activity 2. piloerection, salivation, marked increased motor activity and irritability 3. piloerection, profuse salivation, marked irritability and reactivity, jumping, squeaking, fighting.
# [1] = system: uptake of 5-HT (midbrain slices); test: Inhibition of the uptake of tritiated 5-HT in vitro (brain slices); format: biochemical, mouse
# [2] = system: uptake of noradrenaline (cortex slices); test: Inhibition of the uptake of tritiated noradrenaline in vitro (brain slices); format: biochemical; settings: dl-noradrenaline 10^-7 M
# [3] = system: uptake of 5-HT (midbrain slices); test: Inhibition of the uptake of tritiated 5-HT in vivo; set-up: species or system mouse; settings: for ED50: Mus musculus, ip, 0.5 h, i.p., in vivo, read-out: Inhibition (50 %) of uptake in vivo, 5-HT
# Procedure: The drugs were administered intraperitoneally half an hour before the animals were killed and the midbrain was taken out and sliced and incubated in a mixture consisting of, per 100 mg of brain slices, 0.2 μmole of ^3 H-5-HT and 1 μmole of glucose in 2 ml of Krebs-Henseleit buffer, pH 7.4. The incubation time was 5 minutes with 5 minutes of preincubation before ^3 H-5-HT was added. The radioactive ^3 H-5-HT taken up in the slices was extracted with ethanol and the amount was determined by liquid scintillation. The dose producing 50 per cent decrease of the active uptake (ED50) was determined graphically from dose response curves. Active uptake is defined as that part of the radioactive uptake which is inhibited by a high concentration of cocaine. All doses were given at least to four animals.
# [4] = system: uptake of noradrenaline (cortex slices); test: Inhibition of the uptake of tritiated noradrenaline in vivo; settings: for ED50: ip, read-out: Inhibition (50 %) of uptake in vivo, NA; for effectiveness in blocking the uptake of noradrenaline in vivo relative to imipramine: versus imipramine
# Procedure: The animals were killed half or one hour after the administration of the drugs in vivo (i.p.). The slices, made from cortex, were preincubated for five minutes and incubated with 0.1 μmole per ml of ^3 H-noradrenaline for further five minutes. The incubation mixture consisted of 0.2 μmole of ^3 H-NA and the brain slices in 2 ml of Krebs-Henseleits buffer, pH 7.4. The radioactive ^3 H-NA taken up in the slices was extracted with ethanol and the amount was determined by liquid scintillation. The dose producing 50 per cent decrease of the active uptake (ED50) was determined graphically from dose response curves. At least four animals were used at each dose level.
# in vivo = settings: mouse
# Procedure: (§1) The compounds were given by intravenous route to 3 mice. […] Seizures, gait, sedation and grip strength were recorded.
# (§2) Acute toxicity was tested by the intraveneous, intraperitoneal and oral routes of administration. […] During the oral route a behavioral scoring system was used in order to relate changes in behavior to dose. The LD50 values were determined graphically from log dose -- response curves based on four doses with three animals per dose. Peripheral parasympatholytic effect was tested in mice by observing the mydriatic effect after intravenous injection (9) (four doses with three animals per dose). PD200 refers to the dose which increases the pupil width by 200%.
# pupil width (mydriasis) [5] = test: Peripheral anticholinergic (parasympatholytic) effect, mydriasis in mice; settings: for Peripheral anti-cholinergic action PD200: i.v., dose increasing the pupil by 200%
# Procedure: as §1, §2
# 5-HTP response = 5-HTP response potentiation test; format: in vivo, mouse; settings: for minimal effective dose: Mus musculus, ip
# Procedure: These small movements are quantitatively measured in an activity box, type Animex, which can distinguish between small and gross movements. The activity is measured during 20 minutes and only in the case the animals have a fullblown syndrome.
# motor activity = test: Motor activity in mice; format: in vivo, mouse; settings: for ED50: Mus musculus, 1 h; for ED50 / sedation (motor activity) versus CPZ: mice
# Procedure: The exploratory activity of mice was recorded in a locomotion cage in which the movements were counted each time the animals cross-circuits on electrical current in the bottom plate. […] The animals were tested individually. Groups of six mice were used and the mice were only used once. The activity was expressed in percent of the activity of control groups ran simultaneously.
# Sedative activity was defined as suppression of normal motor activity. The motor activity in mice was automatically recorded in a locomotion cage in which the movements are counted each time the animal short-circuits an electrical current in the bottom plate. […] The animals were tested individually. Groups of six mice were used. The activity was expressed in percent of the activity of control groups run simultaneously.
# rabbits = test: Drug induced arrhythmias in rabbits; format: in vivo, rabbit
# Source text: Test drugs were intravenously administered to male rabbits anesthesized wth amytal. The doses were increased stepwise up to the lethal dose and the first dose which induced arrhythmia was noted.
# pupil width (mydriasis) [6] = settings: mouse, in vivo; for Peripheral anti-cholinergic action PD200 / PD200 (Table 4): iv, 10 min
# Procedure: as §1, §2
# mice = test: Acute toxicity in mice; settings: in words
# Procedure: as §1, §2
# [7] = system: conditioned avoidance response (CAR); test: Conditioned avoidance response in rats; format: in vivo, rat; settings: rat; for CAR CD50: i.p., 60 min; for effect on conditioned avoidance response: in words
# Procedure: For this reason the conditioned avoidance test has been developed for initial screening of neuroleptics. Rats were trained to avoid electrical shock by jumping from one compartment to the other in a shuttle box. The conditioned stimulus consists of an auditory signal which after eight seconds was followed by the electrical shock. The rates were trained to a criterion of making eight out of ten responses correctly. The drugs were injected one hour before the test. The avoidance responses are expressed in percentage of those before administration. CD50 is the dose which reduces the avoidance response to 50% of control values.
# [8] = Mus musculus, ip; read-out: Potentiation of l-Dopa, effective dose
# [9] = ip, i.p., read-out: Motor activity ID50 (Table 4)
Compound,"Inhibition (50 %) of uptake in vitro, 5-HT [1] [µg/mL]","Inhibition (50 %) of uptake in vitro, NA [2] [µg/mL]",ED50 [3] [mg/kg],ED50 [4] [mg/kg],LD50 at 24 h (in vivo; iv) [mg/kg],Peripheral anti-cholinergic action PD200 (pupil width (mydriasis) [5]) [mg/kg],minimal effective dose (5-HTP response) [mg/kg],minimal effective dose (l-Dopa response; [8]) [mg/kg],ED50 (motor activity; read-out: Motor activity ID50) [mg/kg],Peripheral anti-cholinergic action PD200 (pupil width (mydriasis) [6]) [mg/kg],other results
"CN(C)CCC=C1c2ccccc2CCc2ccccc21 [Amitriptyline, reference compound]",–,–,–,–,–,–,–,–,–,–,l-Dopa syndrome score (l-Dopa response; 20 mg/kg i.p. 4 hours before l-Dopa): three
CN(C)C1C=CC2(CC1)c1ccccc1C=Cc1ccccc12 (stereo not drawn) [CPG 146],4,0.02,> 40,1.7,30,1,–,–,–,–,effectiveness in blocking the uptake of noradrenaline in vivo relative to imipramine [4]: about three times as effective as imipramine
CN(C)C1CCC2(CC1)c1ccccc1C=Cc1ccccc12 [CPG 147],4,0.05,> 40,1.5,32,1,> 25,2.5,27,–,effectiveness in blocking the uptake of noradrenaline in vivo relative to imipramine [4]: about three times as effective as imipramine
CNC1CCC2(CC1)c1ccccc1C=Cc1ccccc12 [CPG 148],3,1.5,> 40,> 40,60,3.5,> 25,> 10,35,–,–
NC1C=CC2(CC1)c1ccccc1C=Cc1ccccc12 (stereo not drawn) [CPG 186],> 10,1.5,28,14,25,–,25,> 10,> 50,> 25,"blocking the uptake of 5-HT in vivo versus imipramine ([3]; in words): blocks the uptake of 5-HT in equivalent doses; sedation / tranquilizing effect (motor activity; in words): gave sedation only in high doses; arrhythmia in rabbits (rabbits; nonlethal doses, in words): did not cause arrhythmia in nonlethal doses in rabbits; Arrythmia (rabbit), accumulated i.v. dose where there are signs of arrythmia (rabbits; rabbit, in vivo, iv): > 10; anticholinergic effects (pupil width (mydriasis) [6]): devoid of the anticholinergic effects"
NC1CCC2(CC1)c1ccccc1C=Cc1ccccc12 [CPG 191],2,1.5,> 40,> 40,32,–,> 25,> 10,53,< 10,–
CNC1C=CC2(CC1)c1ccccc1C=Cc1ccccc12 (stereo not drawn) [CPG 264],1.3,0.3,> 40,1.3,25,2.5,> 25,> 10,13,–,effectiveness in blocking the uptake of noradrenaline in vivo relative to imipramine [4]: about three times as effective as imipramine
"CN(C)CCCN1c2ccccc2CCc2ccccc21 [Imipramine, reference compound]",0.1,0.06,24,6,–,13,25,–,45,–,"potentiation of dl-5-HTP (5-HTP response; reference, in words): constantly potentiated dl-5-HTP; minimal effective dose (l-Dopa response; Mus musculus, ip, read-out: Potentiation of l-Dopa, effective dose): 10 mg/kg; anticholinergic effects (pupil width (mydriasis) [5]; in words): anticholinergic effects shared by imipramine"
CN(C)C1C=CC2(CC1)c1ccccc1C=Cc1ccc(Cl)cc12 (stereo not drawn) [SIR 114],7,2.5,> 40,> 40,22,–,> 25,> 10,5.5,15,ED50 (motor activity; [9]): 5.5 mg/kg; sedation (motor activity) versus CPZ (motor activity; in words): caused sedation in the mice at about the same dose as CPZ; PD200 (Table 4) (pupil width (mydriasis) [6]): 15 mg/kg; LD50 at 24 h (in vivo; ip): 130 mg/kg; acute toxicity versus CPZ (mice): intravenous toxicity in the same range as CPZ
CN(C)C1CCC2(CC1)c1ccccc1CCc1ccc(Cl)cc12 (stereo not drawn) [SIR 117],5,1.5,> 40,> 40,27,–,> 25,> 10,14,15,ED50 (motor activity; [9]): 14 mg/kg; sedation (motor activity) versus CPZ (motor activity; in words): somewhat less active; PD200 (Table 4) (pupil width (mydriasis) [6]): 15 mg/kg; acute toxicity versus CPZ (mice): intravenous toxicity in the same range as CPZ
CN(C)C1CCC2(CC1)c1ccccc1C=Cc1ccc(Cl)cc12 (stereo not drawn) [SIR 118],4,1.5,> 40,> 40,18,–,> 25,> 10,11,9,ED50 (motor activity; [9]): 11 mg/kg; sedation (motor activity) versus CPZ (motor activity; in words): somewhat less active; acute toxicity versus CPZ (mice): intravenous toxicity in the same range as CPZ
CN(C)C1C=CC2(CC1)c1ccccc1CCc1ccc(Cl)cc12 (stereo not drawn) [SIR 124],–,–,–,–,–,–,–,–,–,–,CAR CD50 [7]: > 10 mg/kg; effect on conditioned avoidance response [7]: relatively weak effect on CAR
CN(C)C1C=CC2(CC1)c1ccccc1CCc1ccc(Cl)cc12 (stereo not drawn) [SIR 125],–,–,–,–,–,–,–,–,–,–,CAR CD50 [7]: < 2.5 mg/kg; effect on conditioned avoidance response [7]: more potent than the racemate SIR 109 and also more potent than CPZ; also recorded: more potent than both SIR 109 and chlorpromazine; effect on conditioned avoidance response ([7]; listed as β-isomer): the biological activity mainly originates from the β-isomer
